Measured values from paper PMC6337497 (International Journal of Molecular Sciences, 2018).
“Also recorded” adds a separate entry of the source.

Experiments:
[1] = pH-metric titration, acid-base behavior (UV-vis, HypSpec); format: physicochemical; settings: for pKa: aqueous solution diluted from a methanol mother solution, 25.0 °C, ionic strength 0.1 M NaNO3, read-out: pKa (keto-enol moiety)
Protocol: pH-metric titrations were performed in order to assess K3F acidity and predict the most abundant species in physiological condition. […] Overall protonation constants (βHL) were calculated from spectrophotometric data and optimized by means of HypSpec software (Supplementary Table S1). K3F23, K3F24 and K3F33 behaved as weak monoprotic acids, with a pKa value close to 8–8.50 associated to the keto-enol moiety. As for the other two ligands, namely K3F21 and K3F31, the acid-base equilibria were more complex in view of the polyprotic nature of the compounds, and three logβLH values were calculated. Species distribution curves (Supplementary Figure S2) provided reliable prediction of neutral and charged forms as function of pH, and consequently helped to envisage cell penetration and distribution in physiological conditions. […] As for K3F21 and K3F31, they behaved as less weak acids, in fact at pH 7 58% of K3F21 and 65% of K3F31 were found in the mono-dissociated negatively charged form (H2L^−), these percentages increased up to 74% and 86% respectively at pH 7.4. […] This outcome could be attributed to the stabilizing effect of the intramolecular hydrogen bond between the methoxyl and hydroxyl groups on the aromatic ring in the indissociated form of K3F21, which shifts the equilibrium in favor of the neutral species (H3L).
UV-vis spectrophotometric measurements were performed using Jasco V-570 spectrophotometer at 25.0 ± 0.1 °C in the 200–600 nm spectral range employing 1 cm quartz cells. Owing to the poor water solubility of the compounds, a methanol mother solution (5 × 10^−3 M) was diluted in water in order to give 50 µM solutions used for pH-metric titrations. The pH value was varied by adding small amounts of concentrated NaOH or HCl, 25 points in the pH range 3–10. A constant ionic strength of 0.1 M (NaNO3) was maintained in all the experiments. Each titration was performed at least three times. The overall protonation constants (logβLH) were evaluated from spectrophotometric data using the software HypSpec.

[2] = Antioxidant activity (DPPH assay); settings: [DPPH] = 60 µM, methanol, 120 min; read-out: IC50, DPPH radical scavenging
Protocol: The antioxidant activity of the compounds was evaluated in terms of hydrogen donating or radical scavenging ability, using the stable DPPH radical (1,1-diphenyl-2-picrylhydrazyl radical). A variable amount (15, 30, 45, 75, 105, and 150 µL) of a methanol solution (1.2 mM) of each compound was placed in a cuvette, and 3 mL of a 60 µM methanol solution of DPPH was added. Absorbance measurements were initiated immediately. The decrease in absorbance at 517 nm was monitored every minute up to 5′, then every 5′ up to 30′ and every 30′ until reaction reaches completion and absorbance stabilizes attaining a plateau after 120′. Methanol was used to zero the spectrophotometer. The absorbance of the DPPH radical without K3F compound, i.e., the control, was measured daily, and concentration was calculated applying Equation (2) (2) [DPPH^·]=A−1.006/10970
The percentage of inhibition (%In) of the DPPH radical by each sample was calculated according to the formula (3) %In=A0−At/A0×100 where A0 represents the absorbance of the control (DPPH radical) at time 0, while At refers to the absorbance of the mixture DPPH/antioxidant at time t (120 min). Values of absorbance were corrected taking into account volume dilution and all determinations were performed in triplicate.

PC3 cells [3] = assay: MTT cell viability assay, PC3; format: cell-based, Human; settings: for GI50: 48 h treatment, MTT
Protocol: (§1) Human prostate cancer PC3 cells (CRL 1435, ATCC, Manassas, VA, USA) were grown in Ham’s F12 nutrient medium, human prostate cancer DU145 cells (HTB-81, ATCC, Manassas, VA, USA) in RPMI 1640 medium and human colorectal carcinoma HCT116 cells (CCL-247, ATCC, Manassas, VA, USA) in IMDM medium. All media (Biowest, Nuaillé, France) were supplemented with 10% Foetal Bovine Serum (Gibco-Thermo Fisher Scientific, Waltham, MA, USA), L-glutamine, penicillin, and streptomycin (Euroclone, Milan, Italy), and grown at 37 °C in a humidified 5% CO2 atmosphere.
(§2) DMSO was used as control.
(§3) The inhibition of cell proliferation was measured by colorimetric MTT assay and the concentration at which cellular growth is inhibited by 50% (GI50) was determined. Briefly, cells were seeded into 96-well plates at a density of 2000 cells/well. The following day, cells were treated with the indicated compounds and analyzed for cell viability after 48 h. 5 mg/mL thiazolyl blue tetrazolium bromide (Sigma-Aldrich, St. Louis, MO, USA) was added to each well at a final concentration of 0.5 mg/mL and the plates were incubated at 37 °C for 2 h. Medium containing unconverted MTT was removed and 100 µL MTT solvent (4 mM HCl, 0.1% NP-40 in isopropyl alcohol) was added to each well. The plate was gently rotated on an orbital shaker in the dark for 15 min, before the measurements of absorbance at 570 nm. The viability of untreated cells was arbitrarily set at 100%.

DU145 cells [4] = assay: MTT cell viability assay, DU145; format: cell-based, Human; settings: for GI50: 48 h treatment, MTT
Protocol: as §1, §2, §3

PC3 cells [5] = assay: Cell cycle analysis (propidium iodide), PC3; format: cell-based, Human; settings: for effect on cell cycle distribution (in words): PC3, 48 h at GI50 dose
Protocol: (§4) Cells were harvested after 48 h drug treatments and DNA distribution analysis of cells stained with propidium iodide solution (propidium iodide 25 µg/mL, Na-Citrate 3.4 mM, NaCl 9.65 mM, NP-40 0.03%) was performed by an Epics cytofluorimeter (Beckman Coulter Srl, Milan, Italy).

DU145 cells [6] = assay: Cell cycle analysis (propidium iodide), DU145; format: cell-based, Human; settings: for effect on cell cycle distribution (in words): DU145, 48 h at GI50 dose
Protocol: as §4

DU145 cells [7] = assay: K3F21/docetaxel co-administration, MTT and CompuSyn, DU145; format: cell-based, Human; settings: DU145, DTX 20nM co-administered with K3F21, 48 h
Protocol: as §3
The ability of K3F21 and docetaxel to act synergistically with regard to growth inhibition was determined using CompuSyn software (ComboSyn, Inc., freely available at http://www.combosyn.com). Combination index (CI) and drug reduction index (DRI) were calculated for each concentration of drugs mixture, as indicated in the text. CI <1, =1 or >1 indicates synergism, additive effect, or antagonism, respectively. DRI >1 or <1 indicates favorable or not favorable dose-reduction.

PC3 cells [8] = assay: RT-qPCR gene transcription, PC3; format: cell-based, Human; settings: PC3, 48 h at GI50 dose
Protocol: (§5) Data are presented as relative transcript levels, normalized with RPL21 housekeeping gene, with DMSO levels arbitrarily set at 1.
(§6) RNA was extracted from cells using RNeasy kit (Qiagen, Venlo, The Netherlands) and reversed transcribed with a Moloney murine leukemia virus reverse transcriptase (Promega, Madison, WI, USA). Quantitative real-time PCRs were performed using SsoAdvanced Universal SYBR Green Supermix (Bio-Rad, Hercules, CA, USA) on a Bio-Rad CFX Connect™ real-time PCR detection system. Primer sequences are available upon request. The housekeeping gene Rpl21 was used as a loading control. The relative fold change enrichments of real-time PCR samples were calculated with the formula 2^−(ΔΔCt), where −(ΔΔCt) = −[(Ct target − Ct Rpl21)treated − (Ct target − Ct Rpl21)DMSO].

DU145 cells [9] = assay: RT-qPCR gene transcription, DU145; format: cell-based, Human; settings: DU145, 48 h at GI50 dose
Protocol: as §5, §6

PC3 cells [10] = assay: Western blot of total cellular lysates, PC3; format: cell-based, Human; settings: PC3, 48 h at GI50 dose
Protocol: (§8) Actin was used as loading control. Whole-cell protein extracts were prepared by resuspending cells into 1X SDS sample buffer (25 mM Tris-HCl pH 6.8, 1.5 mM EDTA, 20% glycerol, 2% SDS, 5% β-mercaptoethanol, 0.0025% Bromophenol blue). Equivalent amounts of cellular extracts were resolved by SDS-PAGE, electrotransferred to PVDF membrane (GE Healthcare Italia, Milan, Italy) and immunoblotted with the following primary antibodies: anti-phospo-H2AX (sc-101696), anti-p53 (DO1) (sc-126), anti-actin ([MUT]) (sc-1616) and anti-PARP (sc-8007) antibody from Santa Cruz Biotecnology, Inc, Dallas, TX, USA.; phospho-specific AKT antibody S473 (#9018) and T308 (#9275), Akt antibody (#9272 and #2967), phospho-specific ERK1/2 antibody T202/Y204 (#4370), ERK1/2 antibody (#4669), phospho-specific p38 MAPK antibody T180/Y182 (#9211), and p38 antibody (#9212) were purchased from Cell Signaling Technologies, Danvers, MA, USA. Membranes were blotted and scanned with Bio-Rad ChemiDocTM Touch Imaging System (Bio-Rad, Hercules, CA, USA), using chemiluminescent detection reagents from Cyanagen, Bologna, Italy (Westar ηC and Supernova HRP substrates for Western blotting).

DU145 cells [11] = assay: Western blot of total cellular lysates, DU145; format: cell-based, Human; settings: DU145, 48 h at GI50 dose
Protocol: as §8

PC3 cells [12] = assay: Cell migration (wound) assay, PC3; format: cell-based, Human; settings: PC3, GI50 dose, 40 h
Protocol: (§7) 4 × 10^5 prostate cancer cells were plated in a 12-well plate. Approximately 24 h later, when the cells were 100% confluent, the monolayer was scratched using a 200 µL pipette tip. […] Three biological replicates were performed. Three random pictures were taken for each treated well per experiment and the areas of the wounds measured using ImageJ software. The percentage of wound recovery was then calculated using the formula: (final area-initial area)/initial area × 100%.

DU145 cells [13] = assay: Cell migration (wound) assay, DU145; format: cell-based, Human; settings: DU145, GI50 dose, 16 h
Protocol: as §7

metastatic CRPC = system: metastatic CRPC; parameters: method as in PMID 12644816, PMID 11448901; settings: Phase II clinical trial; cited from earlier work
[14] = Kinetic stability in physiological conditions (UV-vis); format: physicochemical; settings: after 24 h; PBS 0.01 M, NaCl 0.1M, pH = 7.4, 37 °C in darkness
Protocol: Figure 2 Stability and radical scavenging ability of K3F derivatives. (A) Residual % of K3F compounds vs. time (PBS 0.01 M, NaCl 0.1M, pH = 7.4, 37 °C in darkness). Residual % is calculated as At·100/A0, where At and A0 stand for absorbance at λmax at time t and time zero, respectively. (B) Percentage of inhibition of free DPPH radical ([DPPH^·] = 60 µM) in the presence of K3F compounds at increasing concentrations. Compounds concentration is expressed as molar ratio (compound/DPPH).
[…] 100 μM solutions of the ligands were prepared in 0.1 M Tris-HCl buffer (pH 7.4) with constant ionic strength (0.1 M NaNO3). Spectra were recorded every 30 min. All profiles were linearized by hyperbolic function (Equation (1)), which represents an empirical model that well describes drug decomposition or release. t/f% = at + b(1) where f% is the fraction of residual compound at time t (min) expressed as percentage referred to starting concentration at time zero.

O=C(/C=C/c1ccc(O)cc1)C(CCCN1C(=O)c2ccccc2C1=O)C(=O)/C=C/c1ccc(O)cc1 [K3F31]
mono-dissociated negatively charged form (H2L−) ([1]; pH 7): 65% | mono-dissociated negatively charged form (H2L−) ([1]; pH 7.4): 86% | IC50 [2]: 120 µM

COc1cccc(/C=C/C(=O)C(CCCN2C(=O)c3ccccc3C2=O)C(=O)/C=C/c2cccc(OC)c2)c1 [K3F23]
pKa [1]: 8 to 8.5 | prevailing species ([1]; pH 7): neutral one (HL) | GI50 (PC3 cells [3]; Homo sapiens, PC-3, 48 h): 12.4 µM | GI50 (DU145 cells [4]; Homo sapiens, DU-145): 12.5 µM | effect on cell cycle distribution (in words) (PC3 cells [5]): doubled the percentage of G2/M cells | effect on cell cycle distribution (in words) (DU145 cells [6]): both arrested the G2/M progression and induced cell death

CC(=O)O[C@@]12CO[C@@H]1C[C@H](O)[C@@]1(C)C(=O)[C@H](O)C3=C(C)[C@@H](OC(=O)[C@H](O)[C@@H](NC(=O)OC(C)(C)C)c4ccccc4)C[C@@](O)([C@@H](OC(=O)c4ccccc4)[C@H]21)C3(C)C [Docetaxel, reference compound]
IC50 (PC3 cells [3]; Homo sapiens, PC-3, PC3, MTT assay): 0.03 µM | IC50 (DU145 cells [4]; Homo sapiens, DU-145, DU145, MTT assay): 0.017 µM | effect on cell cycle distribution (in words) (PC3 cells [5]): high cytotoxic effect associated to a robust increase in SubG1 events | effect on cell cycle distribution (in words) (DU145 cells [6]): high cytotoxic effect associated to a robust increase in SubG1 events | DTX drug reduction index (DRI) (DU145 cells [7]): 2.9

COc1cc(C=CC(=O)CC(=O)C=Cc2ccc(O)c(OC)c2)ccc1O [Curcumin, 1,7-bis [4-hydroxy-3-methoxyphenyl]-1,6-heptadiene-3,5-Dione, reference compound]
GI50 (PC3 cells [3]; Homo sapiens, PC-3, 48 h): 21 µM | GI50 (DU145 cells [4]; Homo sapiens, DU-145): 17.3 µM | PC3 % CELLS G2/M (PC3 cells [5]; 48 h at GI50 concentration): 37% | effect on cell cycle distribution (in words) (PC3 cells [5]): significantly increases SubG1 events | DU145 % CELLS SubG1 (DU145 cells [6]; 48 h at GI50 concentration): 5% | effect on cell cycle distribution (in words) (DU145 cells [6]): mainly acts as a cytotoxic drug | Noxa transcription (PC3 cells [8]): induced | transcription of CDK inhibitors p21 and p27 (PC3 cells [8]): increased | Noxa transcription (DU145 cells [9]): induced | ERK1/2 phosphorylation (PC3 cells [10]): increased | phosphorylation of AKT in Ser473 and Thr308 (PC3 cells [10]): inhibited | γH2AX expression (marker of DNA damage) (PC3 cells [10]): increased | ERK1/2 phosphorylation (DU145 cells [11]): increased | phospho-p38 expression (DU145 cells [11]): no changes were observed | γH2AX expression (marker of DNA damage) (DU145 cells [11]): increased γH2AX in PC3 only | cell migration (wound recovery) (PC3 cells [12]): inhibitory effects on the migratory capacity | cell migration (wound recovery) (DU145 cells [13]): inhibitory effects on the migratory capacity

O=C1CCC(N2C(=O)c3ccccc3C2=O)C(=O)N1 (centres unmarked) [thalidomide]
patients with a decline in PSA of ≥40% (metastatic CRPC): 30–40%

2-((4Z,6E)-4-cinnamoyl-5-hydroxy-7-phenylhepta-4,6-dien-1-yl)isoindoline-1,3-dione [K3F33]
prevailing species ([1]; pH 7): neutral one (HL) | residual percentage [14]: ~60% | GI50 (PC3 cells [3]): 21.8 µM | GI50 (DU145 cells [4]): 23.3 µM | effect on cell cycle distribution (in words) (PC3 cells [5]): doubled the percentage of G2/M cells; also recorded: significantly increases SubG1 events | effect on cell cycle distribution (in words) (DU145 cells [6]): ability to arrest cell cycle progression

COc1cc(/C=C/C(=O)C(CCCN2C(=O)c3ccccc3C2=O)C(=O)/C=C/c2ccc(OC(C)=O)c(OC)c2)ccc1OC(C)=O [K3F24]
pKa [1]: 8 to 8.5 | prevailing species ([1]; pH 7): neutral one (HL) | GI50 (PC3 cells [3]; Homo sapiens, PC-3, 48 h): 16.7 µM | GI50 (DU145 cells [4]; Homo sapiens, DU-145): 13.2 µM | effect on cell cycle distribution (in words) (PC3 cells [5]): doubled the percentage of G2/M cells | effect on cell cycle distribution (in words) (DU145 cells [6]): ability to arrest cell cycle progression
